Experiments:
[1] = Dynamic vapor sorption (DVS) analysis, Hiden IGAsorp; type: physicochemical
Procedure: Approximately 10 mg of sample was placed into a mesh vapor sorption balance pan and loaded into a Hiden IGAsorp by Hiden. The sample was subjected to a ramping profile from 40-90% relative humidity (RH) at 10% increments, maintaining the sample at each step until a stable weight had been achieved (99.5% step completion). After completion of the sorption cycle, the sample was dried using the same procedure to 0% RH the sample was then subsequently taken back to 40% RH using the same procedure.
A DVS analysis of the 4:3 naltrexone: 5-methyl-2-furaldehyde cocrystal was performed using Hiden IGAsorp method.

[2] = Solubility of the cocrystal in heptane; type: physicochemical
Excerpt: A drug-in-adhesive transdermal patch of the invention may be manufactured using methods known in the art. The 4:3 naltrexone: 5-methyl-2-furaldehyde cocrystal particles may be incorporated into the drug-in-adhesive layer also using known methods such as melt blending. The 4:3 naltrexone: 5-methyl-2-furaldehyde cocrystal particles may be dispersed in a liquid in which the cocrystal is not soluble or only sparingly soluble (a “non-solvent”) and then added to a solution of the other drug-in-adhesive layer components in that same liquid. Alternatively, the 4:3 naltrexone: 5-methyl-2-furaldehyde cocrystal particles may be dispersed into the solution of the drug-in-adhesive components itself. Use of a non-solvent ensures that the cocrystal retains its crystalline form while forming the drug-in-adhesive layer. For the 4:3 naltrexone: 5-methyl-2-furaldehyde cocrystal, such a liquid will generally be a non-polar organic solvent. An example of such a solvent is heptane in which the 4:3 naltrexone: 5-methyl-2-furaldehyde cocrystal has a solubility of only 0.1 mg/mL at 5° C. and of 0.2 mg/mL at 50° C. Alternatively, the 4:3 naltrexone: 5-methyl-2-furaldehyde cocrystal particles may be incorporated into the drug-in-adhesive layer also using known methods such as melt blending.

[3] = Skin flux evaluation, Franz Cell Diffusion method; type: in vitro ADME, human; conditions: film without lidocaine (n=7) vs patch with lidocaine, 32° C., 72-hour period
Procedure: The diffusion of lidocaine API and naltrexone from the 4:3 naltrexone: 5-methyl-2-furaldehyde cocrystal in the transdermal patch to the skin was studied using a Franz Cell Diffusion (FCD) method. In the method, transdermal patches were placed on top of heat-separated human cadaver skin. The receptor solution (0.01M phosphate buffer, pH 5.76) was analyzed for lidocaine and naltrexone content over time by HPLC using the methods discussed above. In one set of experiments the method used four transdermal patches (n=4) and was carried out at 32° C. […] In another set of experiments a similar film was prepared as above without lidocaine (Dow Medical Fluid 100-5%/Dow 7-4201-88%/NTX-Co-7%). NTX-Co transdermal flux (n=7) was measured through heat-separated human cadaver skin using Franz Cell Diffusion cells at 32° C.

4:3 naltrexone: 5-methyl-2-furaldehyde cocrystal
hygroscopicity (DVS) ([1]; DVS kinetic analysis): not hygroscopic | XRPD pattern of material reclaimed after DVS experiment ([1]; after DVS cycle, compared with FIG. 1): same XRPD pattern as in FIG. 1 | mass change (DVS) ([1]; ramping 40-90% RH, drying to 0% RH, back to 40% RH): < 3% | solubility in heptane ([2]; 5° C.): 100 µg/mL | solubility in heptane ([2]; 50° C.): 200 µg/mL | transdermal flux [3]: lower in the absence of lidocaine
